From patent US9822089B2, “R type of resveratrol dimer, preparation process therefor and purpose thereof in lowering blood sugar level” (priority 2013, dated 2017)

Assays:
[1] = system: sucrose-induced high blood sugar level of a mouse; test: orally-administered sucrose tolerance test for normal mice; format: in vivo; details: for Blood sugar concentration: drug 0.33 mg/ml suspension, 0.3 ml per 10 g intragastric 30 min before, x ± s, n = 10; for area under the sucrose tolerance test curve: FIG. 1, negative control group 21.0 mmol h/L; for blood glucose-lowering rate: compared with the negative control group; for lowering of sucrose-induced high blood sugar level of a mouse (in words): sucrose load
Procedure: A mean body weight of mice was 22 g to 25 g. The mice were randomly divided into 6 groups, and each group included 10 animals. Each group of animals was intragastrically administered with a drug after 12 hours of fasting.
For a normal control group, a 0.5% CMC-Na solution whose volume is equal to that of a positive control group was administered.
For a negative control group, a 0.5% CMC-Na solution whose volume is equal to that of a positive control group was administered.
For an acarbose group, a 0.33 mg/ml acarbose suspension that was prepared by using a 0.5% CMC-Na solution was administered at a dosage of 0.3 ml per 10 g of weight.
For a TVN racemate group, a 0.33 mg/ml TVN racemate suspension that was prepared by using a 0.5% CMC-Na solution was administered at a dosage of 0.3 ml per 10 g of weight.
For a (S,S)-TVN group, a 0.33 mg/ml (S,S)-TVN suspension that was prepared by using a 0.5% CMC-Na solution was administered tat a dosage of 0.3 ml per 10 g of weight.
For a (R,R)-TVN group, a 0.33 mg/ml (R,R)-TVN suspension that was prepared by using a 0.5% CMC-Na solution was administered at a dosage of 0.3 ml per 10 g of weight.
After 30 min, animals in the groups other than the normal group were intragastrically administered with a 6.7% sucrose solution at a dosage of 0.3 ml per 10 g of weight, and animals in the normal group were intragastrically administered with water whose volume is equal to that of the sucrose solution. Orbital blood sampling was separately performed at four time points, namely 0 h, 0.5 h, 1 h, and 2 h after intragastric administration of the sucrose solution to the animals. Then, 2 μL of blood serum was taken after centrifugation and added into a 96-pore plate. Thereafter, 200 μL of a reagent from a glucose assay kit was further added thereinto and a 505 nm micro-plate reader was used to measure a value of absorbance. A blood sugar concentration was obtained from a standard curve. Refer to the table below:
All data was represented by using a mean value±a standard deviation (x±s). SPSS11.5 software was used for analysis, and data comparison was performed by means of a one-way analysis of variance. P<0.05 represents that there was a significant difference; and P<0.01 represents that there was an extremely significant difference.

alpha-glucosidase = details: in vitro; multiple of the activity of acarbose; cited from earlier work
[2] = 0.5 h after intragastric sucrose

Oc1ccc(C2Oc3ccc(/C=C/c4cc(O)cc(O)c4)cc3C2c2cc(O)cc(O)c2)cc1 (racemic) [TVN racemate, trans-δ-viniferin]
Blood sugar concentration ([1]; 0 h after intragastric sucrose): 7.75 ± 1.57 mmol/L
Blood sugar concentration [1, 2]: 10.34 ± 1.75 mmol/L
Blood sugar concentration ([1]; 1 h after intragastric sucrose): 9.07 ± 1.55 mmol/L
Blood sugar concentration ([1]; 2 h after intragastric sucrose): 8.83 ± 1.46 mmol/L
area under the sucrose tolerance test curve [1]: 18.3 mmol·h/L
blood glucose-lowering rate ([1]; at 0.5 h): 13.98%
blood glucose-lowering rate ([1]; at 1 h): 14.60%
lowering of sucrose-induced high blood sugar level of a mouse (in words) [1]: has a hypoglycemic activity between hypoglycemic activities of the both
alpha-glucosidase inhibitory activity relative to acarbose (alpha-glucosidase): 254 times

Oc1ccc([C@@H]2Oc3ccc(/C=C/c4cc(O)cc(O)c4)cc3[C@H]2c2cc(O)cc(O)c2)cc1 [(R,R)-TVN, (7R,8R)-trans-δ-viniferin]
area under the sucrose tolerance test curve [1]: 16.7 mmol·h/L
blood glucose-lowering rate ([1]; at 0.5 h): 30.20%
blood glucose-lowering rate ([1]; at 1 h): 22.79%
lowering of sucrose-induced high blood sugar level of a mouse (in words) [1]: can significantly lower a sucrose-induced high blood sugar level of a mouse, and has a better effect than the TVN racemate

Oc1ccc([C@H]2Oc3ccc(/C=C/c4cc(O)cc(O)c4)cc3[C@@H]2c2cc(O)cc(O)c2)cc1 [(S,S)-TVN, (7S,8S)-trans-δ-viniferin]
area under the sucrose tolerance test curve [1]: 20.9 mmol·h/L
blood glucose-lowering rate ([1]; at 0.5 h): 0.08%
blood glucose-lowering rate ([1]; at 1 h): 3.01%
lowering of sucrose-induced high blood sugar level of a mouse (in words) [1]: cannot significantly lower a sucrose-induced high blood sugar level of a mouse

C[C@H]1O[C@H](O[C@H]2[C@H](O)[C@@H](O)[C@@H](O[C@H]3[C@H](O)[C@@H](O)C(O)O[C@@H]3CO)O[C@@H]2CO)[C@H](O)[C@@H](O)[C@@H]1N[C@H]1C=C(CO)[C@@H](O)[C@H](O)[C@H]1O (some centres unmarked) [Acarbose, acarbose]
Blood sugar concentration ([1]; 0 h after intragastric sucrose): 7.94 ± 1.25 mmol/L
Blood sugar concentration [1, 2]: 9.74 ± 1.45 mmol/L
Blood sugar concentration ([1]; 1 h after intragastric sucrose): 8.32 ± 1.50 mmol/L
Blood sugar concentration ([1]; 2 h after intragastric sucrose): 8.54 ± 1.04 mmol/L
blood glucose-lowering rate ([1]; at 0.5 h): 18.97%
blood glucose-lowering rate ([1]; at 1 h): 21.66%
